Measured values taken from patent publication US6309842A, “Use of modified tethers in screening compound libraries” (Glaxo Wellcome Inc., priority 1997, dated 2001).

How the values were obtained:
[1] = biological target: T1, yeast alpha factor receptor (STE2) (Saccharomyces cerevisiae, UniProt D6VTK4); assay: Secreted β-galactosidase reporter in yeast ARY 110 (FUS1 promoter); assay type: cell-based; conditions: ARY110 culture supernatants
T1 construct: expressed in transfected cells; host or cells: yeast strain ARY 110 with plasmid pRS416-STE2
T1 sequence (D6VTK4 1-431): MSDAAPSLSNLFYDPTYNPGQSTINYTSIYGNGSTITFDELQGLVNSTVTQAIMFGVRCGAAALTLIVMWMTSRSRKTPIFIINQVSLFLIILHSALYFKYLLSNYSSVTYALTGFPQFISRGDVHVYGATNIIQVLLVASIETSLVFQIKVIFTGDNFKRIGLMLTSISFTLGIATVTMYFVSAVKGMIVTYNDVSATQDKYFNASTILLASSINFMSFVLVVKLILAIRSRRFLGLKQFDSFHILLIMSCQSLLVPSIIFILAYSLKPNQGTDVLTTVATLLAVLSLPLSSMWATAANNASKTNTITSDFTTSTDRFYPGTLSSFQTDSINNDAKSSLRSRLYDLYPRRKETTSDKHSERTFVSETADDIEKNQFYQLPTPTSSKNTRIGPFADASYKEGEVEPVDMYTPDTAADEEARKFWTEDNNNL
Excerpt: A second expression system links the A. niger secreted β-galactosidasegene to the yeast mating pathway/FUS1 promoter induction system. Using the integrating beta-galactosidase encoding plasmid pCMGy69 in concert with the yeast alpha factor receptor (STE2) encoding plasmid, PRS416-STE2 (centomeric), a yeast strain designated ARY 110 was produced with the following genotype; (far1 his3 sst2 FUS1-HIS3 FUS1-sBeta-Gal STE2).

STE2 receptor = biological target: T2, STE2 receptor (Saccharomyces cerevisiae, UniProt D6VTK4); assay: Bead tether modification by yeast acid phosphatase, FACScan of 3E7-coated beads; assay type: cell-based; conditions: 500 nM alpha factor, beads exposed 18 hr, 200 nM AF12402
T2 construct: expressed in transfected cells; host or cells: yeast strain ARY84 (Δste2::ura3, plasmid pRS416(URA3)-STE2)
T2 sequence (D6VTK4 1-431): T1 sequence (D6VTK4 1-431)
Excerpt: This system employs yeast ARI 84 reporter cells bearing an STE2 receptor and containing a reporter construct in which a pho3 gene is linked to a FUS1 promoter. Acid phosphatase expressed by the yeast is used to dephosphorylate the substrate phospho-YGGFL-linker-biotin. (SEQ ID NO:25) As a result of dephosphorylation, the substrate can bind to a 3E7 antibody tether. The biotinylated portion of modified tethers is stained using a PE- or alkaline-phosphatase-conjugated streptavidin. Complexes with stained tethers are sorted by FACS™.
ARY84 culture from a fresh, 4-10 day old patch was grown in 3 ml SC minimal media minus Trp, Ura, Leu, pH adjusted to 6.15 using MES buffer 200 mM final at @30C overnight in a tube rotator. At A600, the growing culture was diluted to 0.1 A600 in duplicate in pH 6.15 SC media minus Trp, Ura, Leu. One diluted culture was induced by addition of alpha factor to 500 nM final concentration. 0.1 ml of the appropriate diluted induced or uninduced culture was added to wells of a BSA-blocked 96-well microtitre plate. […]
A desired amount of monobeads (at about 1×10^7 beads/ml) was washed once in 0.5 ml methanol, and twice in 1 ml PBS, pH 7.5. […] The density of beads was determined and about 1×10^5 beads were added to each well (after washing with PBS 0.1% BSA to remove the azide). […]
Staining was analyzed by running the beads through a Becton Dickinson FACScan™ machine. […]

## α-factor
[1]
  beta-galactosidase activity in supernatants over non-induced levels: up to 79 fold
STE2 receptor
  FACScan shift of beads, induced vs not induced yeast: 10 fold
